We go through 16 compounds from BindingDB's records for doi:10.1021/acsmedchemlett.5b00050 (Genomics Institute of The Novartis Research Foundation, 2015).

By IC50 is commonly meant the concentration needed to halve the response being measured.

A short description of assay [1]: Inhibition of Tel-fused TRKB (unknown origin) overexpressed in mouse BA/F3 cells assessed as inhibition of cell proliferation after 48 hrs by luciferase reporter gene assay in absence of recombinant mouse IL3.
The nature of assay [2]: Inhibition of Tel-fused TRKA (unknown origin) overexpressed in mouse BA/F3 cells assessed as inhibition of cell proliferation after 48 hrs by luciferase reporter gene assay in absence of recombinant mouse IL3. (In a reporter assay the amount or activity of a reporter protein is the signal.)
A short description of assay [3]: Inhibition of NGF-activated full length TRKA (unknown origin) expressed in mouse BA/F3 cells assessed as inhibition of cell proliferation.
Assay [4] in a line: Inhibition of Tel-fused FMS (unknown origin) expressed in mouse BA/F3 cells after 48 hrs by luciferase reporter gene assay in absence of recombinant mouse IL3.
Assay [5] is described as follows: Inhibition of Tel-fused KDR (unknown origin) expressed in mouse BA/F3 cells after 48 hrs by luciferase reporter gene assay in absence of recombinant mouse IL3.
The nature of assay [6]: Inhibition of Tel-fused SYK (unknown origin) expressed in mouse BA/F3 cells after 48 hrs by luciferase reporter gene assay in absence of recombinant mouse IL3.
Assay [7] is described as follows: Inhibition of BCR-fused ABL (unknown origin) expressed in mouse BA/F3 cells after 48 hrs by luciferase reporter gene assay in absence of recombinant mouse IL3.
Assay [8] can be described thus: Inhibition of NMP-fused ALK (unknown origin) expressed in mouse BA/F3 cells after 48 hrs by luciferase reporter gene assay in absence of recombinant mouse IL3.
Assay [9] can be described thus: Inhibition of Tel-fused ROS (unknown origin) expressed in mouse BA/F3 cells after 48 hrs by luciferase reporter gene assay in absence of recombinant mouse IL3.
The nature of assay [10]: Inhibition of Tel-fused RET (unknown origin) expressed in mouse BA/F3 cells after 48 hrs by luciferase reporter gene assay in absence of recombinant mouse IL3.
Assay [11] can be described thus: Inhibition of Tel-fused ALK (unknown origin) expressed in mouse BA/F3 cells after 48 hrs by luciferase reporter gene assay in absence of recombinant mouse IL3.
Assay [12] can be described thus: Inhibition of Tel-fused SRC (unknown origin) expressed in mouse BA/F3 cells after 48 hrs by luciferase reporter gene assay in absence of recombinant mouse IL3.
A short description of assay [13]: Inhibition of Tel-fused KIT (unknown origin) expressed in mouse BA/F3 cells after 48 hrs by luciferase reporter gene assay in absence of recombinant mouse IL3.
A short description of assay [14]: Inhibition of Tel-fused MET (unknown origin) expressed in mouse BA/F3 cells after 48 hrs by luciferase reporter gene assay in absence of recombinant mouse IL3.
Assay [15] can be described thus: Inhibition of Tel-fused LCK (unknown origin) expressed in mouse BA/F3 cells after 48 hrs by luciferase reporter gene assay in absence of recombinant mouse IL3.
Assay [16] can be described thus: Inhibition of Tel-fused LYN (unknown origin) expressed in mouse BA/F3 cells after 48 hrs by luciferase reporter gene assay in absence of recombinant mouse IL3.
Assay [17] can be described thus: Inhibition of Tel-fused INSR (unknown origin) expressed in mouse BA/F3 cells after 48 hrs by luciferase reporter gene assay in absence of recombinant mouse IL3.
The nature of assay [18]: Inhibition of Tel-fused FLT3 (unknown origin) expressed in mouse BA/F3 cells after 48 hrs by luciferase reporter gene assay in absence of recombinant mouse IL3.
Assay [19] can be described thus: Inhibition of Tel-fused TIE1 (unknown origin) expressed in mouse BA/F3 cells after 48 hrs by luciferase reporter gene assay in absence of recombinant mouse IL3.
Assay [20] can be described thus: Inhibition of Tel-fused BRAF (unknown origin) expressed in mouse BA/F3 cells after 48 hrs by luciferase reporter gene assay in absence of recombinant mouse IL3.
Assay [21] in a line: Inhibition of Tel-fused IGF1R (unknown origin) expressed in mouse BA/F3 cells after 48 hrs by luciferase reporter gene assay in absence of recombinant mouse IL3.
Assay [22] in a line: Inhibition of Tel-fused TYRO3 (unknown origin) expressed in mouse BA/F3 cells after 48 hrs by luciferase reporter gene assay in absence of recombinant mouse IL3.
Assay [23] in a line: Inhibition of Tel-fused FGFR4 (unknown origin) expressed in mouse BA/F3 cells after 48 hrs by luciferase reporter gene assay in absence of recombinant mouse IL3.
Assay [24] in a line: Inhibition of Tel-fused ZAP70 (unknown origin) expressed in mouse BA/F3 cells after 48 hrs by luciferase reporter gene assay in absence of recombinant mouse IL3.
Assay [25] can be described thus: Inhibition of Tel-fused PDGFRbeta (unknown origin) expressed in mouse BA/F3 cells after 48 hrs by luciferase reporter gene assay in absence of recombinant mouse IL3.
Assay [26] can be described thus: Inhibition of TPM3-fused TRKA (unknown origin) expressed in human KM12 cells assessed as inhibition of cell proliferation after 48 hrs by luciferase reporter gene assay.
The nature of assay [27]: Inhibition of Tel-fused TRKC (unknown origin) overexpressed in mouse BA/F3 cells assessed as inhibition of cell proliferation after 48 hrs by luciferase reporter gene assay in absence of recombinant mouse IL3.
Assay [28] can be described thus: Inhibition of Tel-fused FGR (unknown origin) expressed in mouse BA/F3 cells after 48 hrs by luciferase reporter gene assay in absence of recombinant mouse IL3.
A short description of assay [29]: Inhibition of Tel-fused RON (unknown origin) expressed in mouse BA/F3 cells after 48 hrs by luciferase reporter gene assay in absence of recombinant mouse IL3.
Assay [30] is described as follows: Inhibition of Tel-fused BMX (unknown origin) expressed in mouse BA/F3 cells after 48 hrs by luciferase reporter gene assay in absence of recombinant mouse IL3.
Assay [31] in a line: Inhibition of Tel-fused MER (unknown origin) expressed in mouse BA/F3 cells after 48 hrs by luciferase reporter gene assay in absence of recombinant mouse IL3.
The nature of assay [32]: Inhibition of Tel-fused FLT1 (unknown origin) expressed in mouse BA/F3 cells after 48 hrs by luciferase reporter gene assay in absence of recombinant mouse IL3.
A short description of assay [33]: Inhibition of Tel-fused FGFR3 (unknown origin) expressed in mouse BA/F3 cells after 48 hrs by luciferase reporter gene assay in absence of recombinant mouse IL3.

Regarding `O=C(Nc1ccc(-c2cnc3ccc(NCc4cccc(F)c4)nn23)cc1)C1CCOCC1`, the figures for the half-inhibitory concentration (IC50) in [1] and in assay [2] were 7 nM and 6 nM, respectively.

Consider `N#Cc1ccc(-c2cnc3ccc(N4CCCC4c4cccc(F)c4)nn23)cc1` (centres undefined), for which the half-maximal inhibitory concentration (IC50) in assay [1] was determined as 29 nM.

Take `OCc1ccc(-c2cnc3ccc(NCc4cccc(F)c4)nn23)cc1`: the results for the IC50 in assay [1] and in [2] were 27 nM and 76 nM, respectively.

In the case of `CN(Cc1ccccc1)c1ccc2ncc(-c3ccc(C#N)cc3)n2n1`, the half-maximal inhibitory concentration (IC50) in [1] was 130 nM; in [2] it was 520 nM.

Turning to `N#Cc1ccc(-c2cnc3ccc(N4CCCCC4c4cccc(F)c4)nn23)cc1` (centres undefined), in assay [1], the IC50 stood at 50 nM.

Take `N#Cc1ccc(-c2cnc3ccc(NCc4cccc(F)c4)nn23)cc1`: the IC50 in assay [1] came to 21 nM; in assay [2] it was 50 nM.

As to `NS(=O)(=O)c1ccc(-c2cnc3ccc(NCc4cccc(F)c4)nn23)cc1`, the IC50 in [1] turned out to be 13 nM; in [2], 27 nM.

On to `N#Cc1ccc(-c2cnc3ccc(N4CCC[C@H]4c4cccc(F)c4)nn23)cc1`, for which the concentration for half-maximal inhibition (IC50) in [1] worked out at 1970 nM.

With `O=C(O)CN1CCN(c2cc(-c3cnc4ccc(N5CCC[C@@H]5c5cccc(F)c5)nn34)ccn2)CC1`, the 50% inhibitory concentration (IC50) in assay [3] stood at 1 nM; in [4], 2500 nM; in assay [5], 1000 nM; in assay [6], 4400 nM; in [7] it was 2400 nM; in assay [8], 1200 nM. Further, the IC50 in [9] worked out at 60 nM; in [10] it was 3700 nM; in [11], 2200 nM; in assay [12] it was 2500 nM; in assay [13] it was 790 nM; in [14] it was 4300 nM. Further, the half-inhibitory concentration (IC50) amounted to 3000 nM in assay [15]; 3400 nM in assay [16]; 5300 nM in assay [17]; 3300 nM in [18]; 4300 nM in assay [19]; 6200 nM in assay [20]. The IC50 in assay [21] turned out to be 5100 nM; in assay [22], 5200 nM; in assay [23], 5300 nM; in assay [24], 5200 nM; in assay [25], 2200 nM; in [26], 1 nM. Moreover, the 50% inhibitory concentration (IC50) in assay [1] is 1 nM; in assay [27], below 1 nM; in assay [2] it was 1 nM.

With `COc1ccccc1CNc1ccc2ncc(-c3ccc(C#N)cc3)n2n1`, the half-maximal inhibitory concentration (IC50) amounted to 120 nM in assay [1] and 170 nM in [2].

Take `N#Cc1ccc(-c2cnc3ccc(NCc4ccccc4)nn23)cc1`: the IC50 is 3400 nM in assay [4]; 4100 nM in assay [5]; 4000 nM in [6]; 6400 nM in assay [28]; 3800 nM in assay [7]; 6100 nM in assay [29]. The IC50 in [9] is 300 nM; in assay [30], 9700 nM; in assay [11] it was 3100 nM; in assay [13] it was 2200 nM; in assay [31], 5400 nM; in assay [14], 5100 nM. Moreover, the IC50 was 2000 nM in assay [15]; 8600 nM in assay [17]; 720 nM in assay [18]; 5500 nM in assay [19]; 3000 nM in assay [32]; 2500 nM in [20]. The IC50 in assay [21] stood at 4000 nM; in [33] it was 3900 nM; in assay [23] it was 5900 nM; in [24], 6400 nM; in assay [25], 2000 nM; in assay [1], 270 nM. The half-inhibitory concentration (IC50) was determined as 100 nM in [27] and 850 nM in assay [2].

In the case of `N#Cc1cccc(-c2cnc3ccc(NCc4ccccc4)nn23)c1`, the IC50 in [1] is 200 nM; in assay [2], 740 nM.

Regarding `N#Cc1ccc(-c2cnc3ccc(N4CCC[C@@H]4c4cccc(F)c4)nn23)cc1`, the half-maximal inhibitory concentration (IC50) in assay [1] was 11 nM.

For `OC1CCN(c2cccc(-c3cnc4ccc(N5CCC[C@@H]5c5cccc(F)c5)nn34)n2)CC1`, the IC50 in assay [1] was 4 nM.

For the compound `OC1CCN(c2cc(-c3cnc4ccc(N5CCC[C@@H]5c5cccc(F)c5)nn34)ccn2)CC1`, the IC50 in [3] is 3 nM; in [4], 5300 nM; in assay [5], 5000 nM; in [6], 7900 nM; in assay [7], 5200 nM; in assay [29] it was 4800 nM. In addition, the IC50 in assay [8] came to 3000 nM; in [9], 210 nM; in [30], 4300 nM; in assay [11], 3900 nM; in assay [12], 4600 nM; in assay [13] it was 7000 nM. For the same compound, the half-maximal inhibitory concentration (IC50) in [31] worked out at 5100 nM; in assay [15] it was 5200 nM; in [16], 4900 nM; in assay [18], 4300 nM; in assay [32], 5300 nM; in assay [33], 5000 nM. Moreover, the IC50 in assay [22] turned out to be 5000 nM; in [23], 4400 nM; in [25], 4600 nM; in assay [26], 10 nM; in assay [1], 4 nM; in assay [27], 2 nM. Besides, the IC50 in assay [2] worked out at 4 nM.

For `Fc1cccc([C@H]2CCCN2c2ccc3ncc(-c4ccccn4)n3n2)c1`, the IC50 in [4] was above 10000 nM; in assay [28], 8700 nM; in [9], 600 nM; in assay [30], above 10000 nM; in assay [13], 5500 nM; in assay [1], 1 nM. Moreover, in assay [27], the half-maximal inhibitory concentration (IC50) is 1 nM.
